Measurements: patent US8183262B2, “Pyridine derivatives as mGluR2 antagonists” (Hoffmann-La Roche Inc., priority 2007, dated 2012)

**Q.** For `Cc1cc(-c2ccc(C(F)(F)F)cc2)cc(-c2cccc(-c3cncc(S(=O)(=O)NC(C)(C)CO)c3)c2)n1` [Example 257, 5-{3-[6-Methyl-4-(4-trifluoromethyl-phenyl)-pyridin-2-yl]-phenyl}-pyridine-3-sulfonic acid (2-hydroxy-1,1-dimethyl-ethyl)-amide], which melting point is on record?
**A.** 105 °C (dec.)

**Q.** For `CONS(=O)(=O)c1cccc(-c2cccc(-c3cc(-c4ccc(C(F)(F)F)cc4)cc(C)n3)c2)c1` [Example 258, 3′-[6-Methyl-4-(4-trifluoromethyl-phenyl)-pyridin-2-yl]-biphenyl-3-sulfonic acid methoxy-amide], which melting point is on record?
**A.** 181 °C

**Q.** Which melting point does the source give for `CCc1cc(-c2ccc(C(F)(F)F)cc2)cc(-c2cccc(-c3cnc(N)nc3)c2)n1` [Example 260, 5-{3-[6-Ethyl-4-(4-trifluoromethyl-phenyl)-pyridin-2-yl]-phenyl}-pyrimidin-2-ylamine] here?
**A.** 209 °C

**Q.** For `Cc1cc(-c2ccc(C(F)(F)F)cc2)cc(-c2cccc(-c3cccc(S(=O)(=O)NC(C)(C)C)c3)n2)n1` [Example 261, N-tert-Butyl-3-[6′-methyl-4′-(4-trifluoromethyl-phenyl)-[2,2′]bipyridinyl-6-yl]-benzenesulfonamide], which melting point is on record?
**A.** 183 °C

**Q.** For `Cc1cc(-c2ccc(C(F)(F)F)cc2)cc(-c2ccnc(-c3cccc(S(=O)(=O)NC(C)(C)C)c3)n2)n1` [Example 262, N-tert-Butyl-3-{4-[6-methyl-4-(4-trifluoromethyl-phenyl)-pyridin-2-yl]-pyrimidin-2-yl}-benzenesulfonamide], which melting point is on record?
**A.** 218 °C

**Q.** For `Cc1cc(-c2ccc(C(F)(F)F)cc2)cc(-c2nc(-c3cccc(S(=O)(=O)NC(C)(C)C)c3)cs2)n1` [Example 263, N-tert-Butyl-3-{2-[6-methyl-4-(4-trifluoromethyl-phenyl)-pyridin-2-yl]-thiazol-4-yl}-benzenesulfonamide], which melting point is on record?
**A.** 196 °C

**Q.** With `CCc1cc(-c2ccc(C(F)(F)F)cc2)cc(-c2cccc(-c3ccc(N)nc3)c2)n1` [Example 264, 5-{3-[6-Ethyl-4-(4-trifluoromethyl-phenyl)-pyridin-2-yl]-phenyl}-pyridin-2-ylamine] as the molecule, how does the melting point read?
**A.** 74 °C

**Q.** Which melting point does the source give for `CCc1cc(-c2ccc(C(F)(F)F)cc2)cc(-c2cccc(-c3cccc(S(=O)(=O)NC(C)(C)C)c3)c2)n1` [Example 265, 3′-[6-Ethyl-4-(4-trifluoromethyl-phenyl)-pyridin-2-yl]-biphenyl-3-sulfonic acid tert-butylamide] here?
**A.** 169 °C

**Q.** For `Cc1cc(-c2ccc(C(F)(F)F)cc2)nc(-c2cccc(-c3ccc(S(N)(=O)=O)s3)c2)c1` [Example 273, 5-{3-[4-Methyl-6-(4-trifluoromethyl-phenyl)-pyridin-2-yl]-phenyl}-thiophene-2-sulfonic acid amide], which melting point is on record?
**A.** 211 °C

**Q.** With `Cc1cc(-c2ccc3c(c2)OCO3)cc(-c2cccc(-c3ccc(N)nc3)c2)n1` [Example 276, 5-[3-(4-Benzo[1,3]dioxol-5-yl-6-methyl-pyridin-2-yl)-phenyl]-pyridin-2-ylamine] as the molecule, how does the melting point read?
**A.** 203 °C

**Q.** For `CC(C)(C)NS(=O)(=O)c1cnc(-c2cn(-c3cc(C(F)(F)F)cc(-c4ccc(C(F)(F)F)cc4)n3)cn2)s1` [Example 281, 2-{1-[4-Trifluoromethyl-6-(4-trifluoromethyl-phenyl)-pyridin-2-yl]-1H-imidazol-4-yl}-thiazole-5-sulfonic acid tert-butylamide], which melting point is on record?
**A.** 236 °C

**Q.** For `NS(=O)(=O)c1cccc(-c2cn(-c3cc(C(F)(F)F)cc(-c4ccc(C(F)(F)F)cc4)n3)cn2)c1` [Example 283, 3-{1-[4-Trifluoromethyl-6-(4-trifluoromethyl-phenyl)-pyridin-2-yl]-1H-imidazol-4-yl}-benzenesulfonamide], which melting point is on record?
**A.** > 266 °C

**Q.** With `NS(=O)(=O)c1cnc(-c2cn(-c3cc(C(F)(F)F)cc(-c4ccc(C(F)(F)F)cc4)n3)cn2)s1` [Example 284, 2-{1-[4-Trifluoromethyl-6-(4-trifluoromethyl-phenyl)-pyridin-2-yl]-1H-imidazol-4-yl}-thiazole-5-sulfonic acid amide] as the molecule, how does the melting point read?
**A.** > 266 °C

**Q.** For `CC(C)(C)NS(=O)(=O)c1cccc(-c2cc(-c3cc(C(F)(F)F)cc(-c4ccc(C(F)(F)F)cc4)n3)ccn2)c1` [Example 285, N-tert-Butyl-3-[4-trifluoromethyl-6-(4-trifluoromethyl-phenyl)-[2,4′]bipyridinyl-2′-yl]-benzenesulfonamide], which melting point is on record?
**A.** 196 °C

**Q.** Which melting point does the source give for `NS(=O)(=O)c1cccc(-c2cc(-c3cc(C(F)(F)F)cc(-c4ccc(C(F)(F)F)cc4)n3)ccn2)c1` [Example 286, 3-[4-Trifluoromethyl-6-(4-trifluoromethyl-phenyl)-[2,4′]bipyridinyl-2′-yl]-benzenesulfonamide] here?
**A.** 227 °C (dec.)

**Q.** For `Cc1cc(-c2ccc(C(F)(F)F)cc2)cc(-c2ccnc(-c3cccc(S(=O)(=O)NC(C)(C)C)c3)c2)n1` [Example 287, N-tert-Butyl-3-[6-methyl-4-(4-trifluoromethyl-phenyl)-[2,4′]bipyridinyl-2′-yl]-benzenesulfonamide], which melting point is on record?
**A.** 189 °C

**Q.** With `Cc1cc(-c2ccc(C(F)(F)F)cc2)cc(-c2ccnc(-c3cccc(S(N)(=O)=O)c3)c2)n1` [Example 289, 3-[6-Methyl-4-(4-trifluoromethyl-phenyl)-[2,4′]bipyridinyl-2′-yl]-benzenesulfonamide] as the molecule, how does the melting point read?
**A.** > 250 °C

**Q.** For `NS(=O)(=O)c1cncc(-c2cn(-c3cc(C(F)(F)F)cc(-c4ccc(C(F)(F)F)cc4)n3)cn2)c1` [Example 290, 5-{1-[4-Trifluoromethyl-6-(4-trifluoromethyl-phenyl)-pyridin-2-yl]-1H-imidazol-4-yl}-pyridine-3-sulfonic acid amide], which melting point is on record?
**A.** > 250 °C

**Q.** Which melting point does the source give for `CC(C)(CO)NS(=O)(=O)c1cccc(-c2cn(-c3cc(C(F)(F)F)cc(-c4ccc(C(F)(F)F)cc4)n3)cn2)c1` [Example 291, N-(2-Hydroxy-1,1-dimethyl-ethyl)-3-{1-[4-trifluoromethyl-6-(4-trifluoromethyl-phenyl)-pyridin-2-yl]-1H-imidazol-4-yl}-benzenesulfonamide] here?
**A.** 150 °C (dec.)

**Q.** Which melting point does the source give for `Cc1cc(-c2ccc(C(F)(F)F)cc2)cc(-c2cncc(-c3cccc(S(N)(=O)=O)c3)c2)n1` [Example 295, 3-[6-Methyl-4-(4-trifluoromethyl-phenyl)-[2,3′]bipyridinyl-5′-yl]-benzenesulfonamide] here?
**A.** 235 °C (dec.)

**Q.** For `NS(=O)(=O)c1cccc(-c2cn(-c3cc(-c4ccc(C(F)(F)F)cc4)cc(C(F)(F)F)n3)cn2)c1` [Example 296, 3-{1-[6-Trifluoromethyl-4-(4-trifluoromethyl-phenyl)-pyridin-2-yl]-1H-imidazol-4-yl}-benzenesulfonamide], which melting point is on record?
**A.** > 250 °C

**Q.** With `Cc1cc(-c2ccc(C(F)(F)F)cc2)nc(-c2ccnc(-c3cccc(S(=O)(=O)NC(C)(C)C)c3)c2)c1` [Example 297, N-tert-Butyl-3-[4-methyl-6-(4-trifluoromethyl-phenyl)-[2,4′]bipyridinyl-2′-yl]-benzenesulfonamide] as the molecule, how does the melting point read?
**A.** 189 °C

**Q.** For `Cc1nc(-c2cn(-c3cc(-c4ccc(C(F)(F)F)cc4)cc(C(F)(F)F)n3)cn2)sc1S(=O)(=O)NC(C)(C)C` [Example 300, 4-Methyl-2-{1-[6-trifluoromethyl-4-(4-trifluoromethyl-phenyl)-pyridin-2-yl]-1H-imidazol-4-yl}-thiazole-5-sulfonic acid tert-butylamide], which melting point is on record?
**A.** 260 °C
